From patent US7939534B2, “Certain chemical entities, compositions, and methods” (Cytokinetics, Inc., priority 2006, dated 2011)
pIC50: −log10 of the molar value.

Target: T1, chicken gizzard smooth muscle myosin subfragment-1 chemically crosslinked to either cardiac or skeletal actin (Gallus gallus, UniProt P10587)
T1 construct: chicken gizzard smooth muscle myosin subfragment-1; from tissue; host or cells: chicken gizzard
Assay: Dose dependent smooth muscle myosin ATPase modulation (pyruvate kinase/horseradish peroxidase/pyruvate oxidase-coupled ATPase assay)
Type: biochemical
Details: read-out: IC50 Arithmetic Mean
Procedure: In Vitro Model of Dose Dependent Smooth Muscle Myosin Atpase Modulation
Screening assays were performed using a pyruvate kinase and lactate dehydrogenase-coupled ATPase assay containing the following reagents: Potassium PIPES (50 mM ), MgCl2 (3 mM ), KCl (100 mM ), ATP (0.15 mM ), DTT (1 mM ), BSA (0.1 mg/ml), NADH (0.5 mM ), PEP (1.5 mM ), pyruvate kinase (4 U/ml), lactate dehydrogenase (8 U/ml), and antifoam (50 ppm) (concentrations expressed are final assay concentrations). The pH was adjusted to 6.80 at 22° C. by addition of potassium hydroxide. Lead optimization assays were performed with a more sensitive pyruvate kinase/horseradish peroxidase/pyruvate oxidase-coupled ATPase assay containing the following reagents: Potassium PIPES (12 mM ), MgCl2 (2 mM ), KCl (100 mM ), ATP (0.15 mM ), BSA (0.05 mg/ml), potassium phosphate (2 mM ), amplex red (0.1 mM ), PEP (0.1 mM ), pyruvate kinase (4 U/ml), horseradish peroxidase (0.5 U/ml), pyruvate oxidase (0.5 U/ml), and antifoam (50 ppm) (concentrations expressed are final assay concentrations). The pH was adjusted to 7.00 at 22° C. by addition of potassium hydroxide.
The protein components specific to this assay are chicken gizzard smooth muscle myosin subfragment-1 that has been chemically crosslinked to either cardiac or skeletal actin using an excess of 1-Ethyl-3-[3-dimethylaminopropyl]carbodiimide hydrochloride and N-hydroxysuccinimide. The exact concentration of the crosslinked smooth muscle myosin in the assay is determined empirically, by titration to achieve a desired rate of ATP hydrolysis. The concentration varies between protein preparations due to variations in the fraction of active molecules in each preparation.
Compound dose response assays are performed by first preparing a dilution series of test compound, each with an assay mixture containing potassium PIPES, MgCl2, KCl, ATP, BSA, potassium phosphate, amplex red, PEP, crosslinked smooth muscle actomyosin (subfragment-1), antifoam, and water. The assay is started by adding an equal volume of solution containing potassium Pipes, MgCl2, KCl, BSA, potassium phosphate, pyruvate kinase, horseradish peroxidase, pyruvate oxidase, antifoam, and water. ATP hydrolysis is monitored by measuring the fluorescence of amplex red (excitation at 480 nm, emission at 615 nm). The resulting dose response curve is fit by the 4 parameter equation y=Bottom+((Top−Bottom)/(1+((IC50/X)^Hill))). The IC50 is defined as the concentration at which ATPase activity is midway between the top and bottom of the dose response curve.

Row | pIC50 | Compound
1 | 7.64 | NCc1ncccc1CNC(=O)c1cc(F)c(N2CC[C@@H](F)C2)nc1NCCc1cccc(F)c1 [Compound 53, (6-((3R)-3-fluoropyrrolidinyl)-5-fluoro-2-{[2-(3-fluorophenyl)ethyl]amino}(3-pyridyl))-N-{[2-(aminomethyl)(3-pyridyl)]methyl}carboxamide]
2 | 6.90 | NCc1ncccc1CNC(=O)c1cc(F)c(N2CC[C@@H](O)C2)nc1NCCc1cccc(F)c1 [Compound 55, (6-((3R)-3-hydroxypyrrolidinyl)-5-fluoro-2-{[2-(3-fluorophenyl)ethyl]amino}(3-pyridyl))-N-{[2-(aminomethyl)(3-pyridyl)]methyl}carboxamide]
3 | 6.37 | CC(=O)N1CC=C(c2ccc(C(=O)NCc3cccnc3)c(NCCc3cccc(F)c3)n2)CC1 [Compound 56, (6-(1-acetyl(4-1,2,5,6-tetrahydropyridyl))-2-{[2-(3-fluorophenyl)ethyl]amino}(3-pyridyl))-N-(3-pyridylmethyl)carboxamide]
4 | 4.98 | O=C(NCc1cccnc1)c1ccc(C2=CCNCC2)nc1NCCc1cccc(F)c1 [Compound 57, (2-{[2-(3-fluorophenyl)ethyl]amino}-6-(4-1,2,5,6-tetrahydropyridyl)(3-pyridyl))-N-(3-pyridylmethyl)carboxamide]
5 | 5.67 | CC(C)(C)OC(=O)N1CC=C(c2ccc(C(=O)NCc3cccnc3)c(NCCc3cccc(F)c3)n2)CC1 [Compound 58, tert-butyl 4-(6-{[2-(3-fluorophenyl)ethyl]amino}-5-[N-(3-pyridylmethyl)carbamoyl]-2-pyridyl)-1,2,5,6-tetrahydropyridinecarboxylate]
6 | 5.36 | O=C(NCc1cccnc1)c1ccc(C2CCCC2)nc1NCCc1cccc(F)c1 [Compound 59, (6-cyclopentyl-2-{[2-(3-fluorophenyl)ethyl]amino}(3-pyridyl))-N-(3-pyridylmethyl)carboxamide]
7 | 5.74 | O=C(NCc1cccnc1)c1ccc(C2=CCC3(CC2)OCCO3)nc1NCCc1cccc(F)c1 [Compound 60, (6-(1,4-dioxaspiro[4.5]dec-7-en-8-yl)-2-{[2-(3-fluorophenyl)ethyl]amino}(3-pyridyl))-N-(3-pyridylmethyl)carboxamide]
8 | 7.00 | COC(=O)N1CC=C(c2ccc(C(=O)NCc3cccnc3)c(NCCc3cccc(F)c3)n2)CC1 [Compound 61, methyl 4-(6-{[2-(3-fluorophenyl)ethyl]amino}-5-[N-(3-pyridylmethyl)carbamoyl]-2-pyridyl)-1,2,5,6-tetrahydropyridinecarboxylate]
9 | 6.20 | O=C(NCc1cccnc1)c1ccc(C2=CCCC2)nc1NCCc1cccc(F)c1 [Compound 62, (6-cyclopent-1-enyl-2-{[2-(3-fluorophenyl)ethyl]amino}(3-pyridyl))-N-(3-pyridylmethyl)carboxamide]
10 | 6.17 | O=C1CC=C(c2ccc(C(=O)NCc3cccnc3)c(NCCc3cccc(F)c3)n2)CC1 [Compound 64, (2-{[2-(3-fluorophenyl)ethyl]amino}-6-(4-oxocyclohex-1-enyl)(3-pyridyl))-N-(3-pyridylmethyl)carboxamide]
11 | 5.38 | O=C(NCc1cccnc1)c1ccc(C2CCCCC2)nc1NCCc1cccc(F)c1 [Compound 66, (6-cyclohexyl-2-{[2-(3-fluorophenyl)ethyl]amino}(3-pyridyl))-N-(3-pyridylmethyl)carboxamide]
12 | 6.93 | O=C(NCc1cccnc1)c1ccc(C2=CCCCC2)nc1NCCc1cccc(F)c1 [Compound 67, (6-cyclohex-1-enyl-2-{[2-(3-fluorophenyl)ethyl]amino}(3-pyridyl))-N-(3-pyridylmethyl)carboxamide]
13 | 6.35 | CN(C)C(=O)N1CC=C(c2ccc(C(=O)NCc3cccnc3)c(NCCc3cccc(F)c3)n2)CC1 [Compound 69, (6-[1-(N,N-dimethylcarbamoyl)(4-1,2,5,6-tetrahydropyridyl)]-2-{[2-(3-fluorophenyl)ethyl]amino}(3-pyridyl))-N-(3-pyridylmethyl)carboxamide]
14 | 6.53 | O=C(NCc1cccnc1)c1cc(Br)c(N2CCCC2)nc1NCCc1cccc(F)c1 [Compound 70, (5-bromo-2-{[2-(3-fluorophenyl)ethyl]amino}-6-pyrrolidinyl(3-pyridyl))-N-(3-pyridylmethyl)carboxamide]
15 | 5.36 | CN1CC=C(c2ccc(C(=O)NCc3cccnc3)c(NCCc3cccc(F)c3)n2)CC1 [Compound 71, (2-{[2-(3-fluorophenyl)ethyl]amino}-6-(1-methyl(4-1,2,5,6-tetrahydropyridyl))(3-pyridyl))-N-(3-pyridylmethyl)carboxamide]
16 | 5.24 | COC(=O)N1C=CC(c2ccc(C(=O)NCc3cccnc3)c(NCCc3cccc(F)c3)n2)CC1 (centres unmarked) [Compound 72, methyl 4-(6-{[2-(3-fluorophenyl)ethyl]amino}-5-[N-(3-pyridylmethyl)carbamoyl]-2-pyridyl)-1,4,5,6-tetrahydropyridinecarboxylate]
17 | 4.25 | O=C(NCc1cccnc1)c1ccc(C2=NCCN2)nc1NCCc1cccc(F)c1 [Compound 73, (2-{[2-(3-fluorophenyl)ethyl]amino}-6-(2-imidazolin-2-yl)(3-pyridyl))-N-(3-pyridylmethyl)carboxamide]
18 | 7.59 | NCc1ncccc1CNC(=O)c1cc(F)c(N2CCCC2)nc1NCCc1cccc(F)c1 [Compound 78, N-{[2-(aminomethyl)(3-pyridyl)]methyl}(5-fluoro-2-{[2-(3-fluorophenyl)ethyl]amino}-6-pyrrolidinyl(3-pyridyl))carboxamide]

Row | Compound | pIC50
19 | CC(C)(C)OC(=O)NCc1ncccc1CNC(=O)c1cc(F)c(N2CC[C@@H](O)C2)nc1NCCc1cccc(F)c1 [Compound 54, (6-((3R)-3-hydroxypyrrolidinyl)-5-fluoro-2-{[2-(3-fluorophenyl)ethyl]amino}(3-pyridyl))-N-[(2-{[(tert-butoxy)carbonylamino]methyl}(3-pyridyl))methyl]carboxamide] | 5.17
20 | C[C@H](CNC(=O)c1cc(F)c(N2CCCC2)nc1NCCc1cccc(F)c1)NC(=O)CNC(=O)OC(C)(C)C [Compound 63, N-{(1R)-2-[(5-fluoro-2-{[2-(3-fluorophenyl)ethyl]amino}-6-pyrrolidinyl(3-pyridyl))carbonylamino]-isopropyl}-2-[(tert-butoxy)carbonylamino]acetamide] | 4.82
21 | CC(C)(C)OC(=O)NCc1ncccc1CNC(=O)c1cc(F)c(N2CC[C@@H](F)C2)nc1NCCc1cccc(F)c1 [Compound 65, (6-((3R)-3-fluoropyrrolidinyl)-5-fluoro-2-{[2-(3-fluorophenyl)ethyl]amino}(3-pyridyl))-N-[(2-{[(tert-butoxy)carbonylamino]methyl}(3-pyridyl))methyl]carboxamide] | 5.08
22 | CC(C)(C)OC(=O)NCCCN1C(=O)CC[C@@H]1CNC(=O)c1cc(F)c(N2CCCC2)nc1NCCc1cccc(F)c1 [Compound 68, N-[((2R)-1-{3-[(tert-butoxy)carbonylamino]propyl}-5-oxopyrrolidin-2-yl)methyl](5-fluoro-2-{[2-(3-fluorophenyl)ethyl]amino}-6-pyrrolidinyl(3-pyridyl))carboxamide] | 5.48
23 | CC(C)(C)OC(=O)NCC(=O)N1CCC[C@@H]1CNC(=O)c1cc(F)c(N2CCCC2)nc1NCCc1cccc(F)c1 [Compound 77, N-[((2R)-1-{2-[(tert-butoxy)carbonylamino]acetyl}pyrrolidin-2-yl)methyl](5-fluoro-2-{[2-(3-fluorophenyl)ethyl]amino}-6-pyrrolidinyl(3-pyridyl))carboxamide] | 4.86
